Data taken from US7425608B2, “Method of making metallopeptides” (Palatin Technologies, Inc., priority 1998, dated 2008).
Read-outs that look alike come from different tables or passages of the source. *: point of attachment. Cbz = O=C(OCc1ccccc1)*

Tests used:
[1] = cited from earlier work
[2] = target: T1, human neutrophil elastase (HNE) (Homo sapiens, UniProt P08246); test: Human neutrophil elastase inhibition, spectrophotometric assay with chromogenic p-nitroanilide substrate; type: biochemical; conditions: individually resynthesised ReO metallopeptides Z-Aaa-Ser-Cys-Val-NH2 (deconvolution of the most active pool)
T1 construct: purchased Sigma (St. Louis, Mo.)
T1 sequence (P08246 30-267): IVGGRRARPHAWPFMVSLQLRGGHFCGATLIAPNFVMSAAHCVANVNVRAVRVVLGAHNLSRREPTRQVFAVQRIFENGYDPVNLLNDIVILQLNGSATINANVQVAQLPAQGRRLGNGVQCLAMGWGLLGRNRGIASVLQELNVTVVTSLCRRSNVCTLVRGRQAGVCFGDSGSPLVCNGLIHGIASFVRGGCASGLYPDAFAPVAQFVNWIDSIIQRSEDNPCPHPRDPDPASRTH
Procedure: Purified human neutrophil elastase (HNE) was purchased from Sigma (St. Louis, Mo.). The assay was performed spectrophotometrically using a chromogenic p-nitroanilide substrate, MeOSuc-Ala-Ala-Pro-Val-pNA, also purchased from Sigma. The assay protocols were similar to those described by others (e.g., Nakajima K et al: J Biol Chem, 254:4027-4032, 1979). Briefly, 0.05 units of HNE were treated with 1 mM concentration of the library pool in the presence of p-nitroanilide substrate. Spectrophotometric measurement were made at a wavelength of 410 nm. […] Also, among this limited series of compounds, benzyloxycarbonyl group was identified as a preferred R group where Bbb was a Gly, Ala, or Ser residue.
The pool with highest activity, Z-Aaa-Ser-Cys-Val-NH2, was deconvoluted by an iterative resynthesis process. All five individual peptides in this pool were synthesized by the methodologies and protocols of Example 10. Each individual peptide was characterized by mass spectrometry and HPLC. A screening assay was performed as generally described in Example 11. The best results were obtained with Leu or Ile in the position Aaa in the peptide chain. […] Substitution of the three residues Ala, Phe, and Lys(N-Z) at Aaa yielded IC50 values in excess of 1,000 μM.

[3] = related to the ionic core charge of the metal complex

IC50 [2] [µM] | Molecule | compartmentalisation / excretion / passage across biological barriers [1, 3] | further results
– | CCOC(=O)[C@H](C[S-])[N-]CCN[C@@H](C[S-])C(=O)OCC.[O-2].[Tc] [^99mTc-ECD, ethyl cysteinate dimer] | pass through the blood-brain barrier | –
– | C/C(=N\O)C(C)NCC(C)(C)CNC(C)/C(C)=N/O (stereo not shown) [^99mTc-HMPAO, hexamethylpropyleneamine oxime, metal not drawn] | pass through the blood-brain barrier | –
– | O=C(O)CNC(=O)CNC(=O)CNC(=O)CS [^99mTc-MAG3, mercaptoacetylglycylglycylglycine, metal not drawn] | excreted through the kidneys | –
179 | Cbz-ISCV-NH2 | – | –
139 | Z-Leu-Ser-Cys-Val-NH2 (Cbz-LSCV-NH2; not fully specified; printed as Z-Leu-Ser-Cys-Val-NH2) | – | –
> 1000 | Z-Lys(N,-Z)-Ser-Cys-Val-NH2 | – | –
– | methoxyisobutylisonitrile [^99mTc-MIBI] | – | compartmentalisation / excretion / passage across biological barriers ([1]; in vivo): compartmentalized in heart muscles
